Measurements as given in patent publication US9492468B2, “Methods and compositions for treatment of acute heart failure” (PERICOR THERAPEUTICS, INC., priority 2008, dated 2016).
Counter-ions that a name gives are not always drawn.

System: dogs with advanced heart failure
Experiment: Single-dose 6 hours infusion study, hemodynamic, ventriculographic, echocardiographic, MVO2 and P-V loop measures
Format: in vivo, dog
Experimental: Studies were performed in purpose-bred, healthy and conditioned mongrel dogs weighing between 20 and 30 kg. The study was approved by Henry Ford Health System Institutional Animal Care and Use Committee and conformed to the National Institute of Health “Guide and Care for Use of Laboratory Animals” and the “Position of the American Heart Association on Research Animal Use” (Position of the American Heart Association on Research Animal Use. Circulation 1985; 71; 49A-50A).
Chronic LV dysfunction and failure was produced by multiple sequential intracoronary embolizations with polystyrene Latex; coronary microembolizations were performed during cardiac catheterization under general anesthesia and sterile conditions (Sabbah H N, et al. Am J Physiol (1991) 260:H1379-84; Sabbah H N, et al. Circulation (1994) 89:2852-9; Sabbah H N, et al. Am J Cardiol 99:41 A-46A, (2007)). Anesthesia was induced using a combination of intravenous injections of oxymorphone hydrochloride (0.22 mg/kg) and diazepam (0.2-0.6 mg/kg). Plane of anesthesia was maintained throughout the study using 1% to 2% isoflurane. Left and right heart catheterizations were performed via a femoral arteriotomy and venotomy. Coronary microembolizations were discontinued when LV ejection fraction, determined angiographically, was about 25%. A period of 2 weeks was allowed after the last microembolization to ensure that infarctions produced by the last microembolizations have completely healed and heart failure was established before the study is undertaken.
Six heart failure dogs described in Example 1 were used. Studies using active drug and placebo were performed in each dog in random order a minimum of one week apart. After baseline hemodynamic, angiographic and echocardiographic measurements, GP-531 tartrate or placebo was administered as a continuous constant intravenous infusion for 6 hours. The dose of GP-531 tartrate was 10 μg/kg/min. Complete hemodynamic, angiographic and echocardiographic measurements were made during baseline, and at 1, 2, 3, 4, 5 and 6 hours after initiating drug infusion. In addition, myocardial oxygen consumption (MVO2) was measured at baseline and 4 and 6 hours after initiating drug or saline infusion. LV pressure-volume relationships (P-V Loops) were also measured at baseline and at 6 hours after initiating drug or saline infusion to assess load independent contractility and relaxation. Venous blood samples were obtained at baseline and hourly thereafter. Blood samples (at least […]) were centrifuged at 3000 rpm for 10 minutes and plasma withdrawn and placed in cryostorage tubes and stored upright at −20° C. until needed. Venous blood samples were used to evaluate plasma levels of troponin-I and plasma levels of n-terminal pro-brain natriuretic peptide (NT-proBNP).
Study Primary End-Points were: (1) change in LV ejection fraction determined from ventriculography; (2) change in LV end-systolic and end-diastolic volume determined from ventriculography; (3) change in MVO2; and (4) change in the slope of the LV end-systolic and end-diastolic P-V relationship.
All hemodynamic measurements were made during left and right heart catheterizations in anesthetized dogs at each specified study time point. Heart rate (HR), mean aortic pressure (mAoP), LV end-diastolic pressure (LVEDP), stroke volume (SV), cardiac output (CO) and systemic vascular resistance (SVR) were measured at each study time point. Left ventriculograms were performed during cardiac catheterization after completion of the hemodynamic measurements. Left ventriculograms were obtained with the dog placed on its right side and digitally recorded during the injection of 20 ml of contrast material (RENO-M-60 Squibb, Princeton, N.J.). Correction for image magnification was made using a radiopaque grid placed at the level of the LV. […]

[1] = HF dogs n=6, iv 10 μg/kg/min constant infusion, 1 h
[2] = HF dogs n=6, iv 10 μg/kg/min constant infusion, 2 h
[3] = HF dogs n=6, iv 10 μg/kg/min constant infusion, 3 h
[4] = HF dogs n=6, iv 10 μg/kg/min constant infusion, 4 h
[5] = HF dogs n=6, iv 10 μg/kg/min constant infusion, 5 h
[6] = HF dogs n=6, iv 10 μg/kg/min constant infusion, 6 h
[7] = HF dogs n=6, iv 10 μg/kg/min for 6 h, time-dependent
[8] = HF dogs n=6, iv 10 μg/kg/min for 6 h, vs baseline

`NC(=O)c1ncn(C2OC(CNCc3ccccc3)C(O)C2O)c1N` (centres unmarked) [GP-531 tartrate] was tested, and the “Cardiac output (CO)” value [1] was 1.42 ± 0.08 L/min, the “Deceleration time of early mitral inflow velocity (DCT)” value (“Deceleration time” below) [1] was 100 ± 5 ms and the “Ei/Ai (ratio of mitral inflow time-velocity integrals)” value [1] was 1.78 ± 0.23. For the same compound, the “Heart rate (HR)” value [1] was 78 ± 1 beats/min, the “LV end-diastolic circumferential wall stress (EDWS)” value [1] was 53 ± 7 gm/cm^2 and the “LV end-diastolic pressure (LVEDP)” value [1] was 12 ± 1.1 mmHg. For the same compound, the “LV end-diastolic volume (EDV)” value [1] was 64 ± 2 mL, the “LV end-systolic volume (ESV)” value [1] was 46 ± 2 mL and the “LV fractional area of shortening (FAS)” value [1] was 26 ± 0.8%. The “Mean aortic pressure (mAoP)” value [1] was 77 ± 3 mmHg, the “PE/PA (ratio of peak mitral flow velocities)” value [1] was 1.7 ± 0.10 and the “Stroke volume (SV)” value [1] was 18 ± 1.0 mL. The “Systemic vascular resistance (SVR)” value [1] was 4368 ± 248 dynes-sec-cm^−5, the “Cardiac output (CO)” value [2] was 1.47 ± 0.11 L/min and the “Deceleration time” value [2] was 109 ± 4 ms. The “Ei/Ai (ratio of mitral inflow time-velocity integrals)” value [2] was 2.03 ± 0.23, the “Heart rate (HR)” value [2] was 78 ± 2 beats/min and the “LV end-diastolic circumferential wall stress (EDWS)” value [2] was 47 ± 5 gm/cm^2. The “LV end-diastolic pressure (LVEDP)” value [2] was 12 ± 0.9 mmHg, the “LV end-diastolic volume (EDV)” value [2] was 63 ± 2 mL and the “LV end-systolic volume (ESV)” value [2] was 44 ± 2 mL. The “LV fractional area of shortening (FAS)” value [2] was 27 ± 1.3 %, the “Mean aortic pressure (mAoP)” value [2] was 77 ± 3 mmHg and the “PE/PA (ratio of peak mitral flow velocities)” value [2] was 1.8 ± 0.10. The “Stroke volume (SV)” value [2] was 19 ± 1.2 mL, the “Systemic vascular resistance (SVR)” value [2] was 4250 ± 327 dynes-sec-cm^−5 and the “Cardiac output (CO)” value [3] was 1.53 ± 0.08 L/min. For the same compound, the “Deceleration time” value [3] was 113 ± 6 ms, the “Ei/Ai (ratio of mitral inflow time-velocity integrals)” value [3] was 2.40 ± 0.29 and the “Heart rate (HR)” value [3] was 79 ± 3 beats/min. For the same compound, the “LV end-diastolic circumferential wall stress (EDWS)” value [3] was 47 ± 6 gm/cm^2, the “LV end-diastolic pressure (LVEDP)” value [3] was 12 ± 1.1 mmHg and the “LV end-diastolic volume (EDV)” value [3] was 63 ± 2 mL. The “LV end-systolic volume (ESV)” value [3] was 44 ± 2 mL, the “LV fractional area of shortening (FAS)” value [3] was 29 ± 0.9 % and the “Mean aortic pressure (mAoP)” value [3] was 79 ± 3 mmHg. For the same compound, the “PE/PA (ratio of peak mitral flow velocities)” value [3] was 1.9 ± 0.07, the “Stroke volume (SV)” value [3] was 19 ± 0.8 mL and the “Systemic vascular resistance (SVR)” value [3] was 4157 ± 212 dynes-sec-cm^−5. For the same compound, the “Cardiac output (CO)” value [4] was 1.63 ± 0.05 L/min, the “Deceleration time” value [4] was 113 ± 5 ms and the “Ei/Ai (ratio of mitral inflow time-velocity integrals)” value [4] was 2.51 ± 0.21. The “Heart rate (HR)” value [4] was 80 ± 3 beats/min, the “LV end-diastolic circumferential wall stress (EDWS)” value [4] was 44 ± 7 gm/cm^2 and the “LV end-diastolic pressure (LVEDP)” value [4] was 11 ± 1.2 mmHg. For the same compound, the “LV end-diastolic volume (EDV)” value [4] was 63 ± 2 mL, the “LV end-systolic volume (ESV)” value [4] was 42 ± 2 mL and the “LV fractional area of shortening (FAS)” value [4] was 31 ± 1.5 %. The “Mean aortic pressure (mAoP)” value [4] was 79 ± 3 mmHg, the “Myocardial oxygen consumption (MVO2)” value [4] was 114 ± 14 μmols/min and the “PE/PA (ratio of peak mitral flow velocities)” value [4] was 2.1 ± 0.09. For the same compound, the “Stroke volume (SV)” value [4] was 21 ± 0.9 mL, the “Systemic vascular resistance (SVR)” value [4] was 3895 ± 168 dynes-sec-cm^−5 and the “Cardiac output (CO)” value [5] was 1.64 ± 0.07 L/min. For the same compound, the “Deceleration time” value [5] was 118 ± 6 ms, the “Ei/Ai (ratio of mitral inflow time-velocity integrals)” value [5] was 2.68 ± 0.23 and the “Heart rate (HR)” value [5] was 79 ± 4 beats/min. For the same compound, the “LV end-diastolic circumferential wall stress (EDWS)” value [5] was 43 ± 7 gm/cm^2, the “LV end-diastolic pressure (LVEDP)” value [5] was 11 ± 1.2 mmHg and the “LV end-diastolic volume (EDV)” value [5] was 62 ± 2 mL. The “LV end-systolic volume (ESV)” value [5] was 41 ± 2 mL, the “LV fractional area of shortening (FAS)” value [5] was 31 ± 1.4 % and the “Mean aortic pressure (mAoP)” value [5] was 77 ± 2 mmHg. The “PE/PA (ratio of peak mitral flow velocities)” value [5] was 2.2 ± 0.05, the “Stroke volume (SV)” value [5] was 21 ± 1.1 mL and the “Systemic vascular resistance (SVR)” value [5] was 3823 ± 221 dynes-sec-cm^−5. The “Cardiac output (CO)” value [6] was 1.69 ± 0.04 L/min, the “Deceleration time” value [6] was 118 ± 4 ms and the “Ei/Ai (ratio of mitral inflow time-velocity integrals)” value [6] was 2.77 ± 0.23. For the same compound, the “Heart rate (HR)” value [6] was 81 ± 4 beats/min, the “LV end-diastolic circumferential wall stress (EDWS)” value [6] was 41 ± 7 gm/cm^2 and the “LV end-diastolic pressure (LVEDP)” value [6] was 10 ± 1.2 mmHg. The “LV end-diastolic volume (EDV)” value [6] was 62 ± 2 mL, the “LV end-systolic volume (ESV)” value [6] was 41 ± 2 mL and the “LV fractional area of shortening (FAS)” value [6] was 32 ± 1.1 %. The “Mean aortic pressure (mAoP)” value [6] was 76 ± 3 mmHg, the “Myocardial oxygen consumption (MVO2)” value [6] was 115 ± 12 μmols/min and the “PE/PA (ratio of peak mitral flow velocities)” value [6] was 2.2 ± 0.06. The “Slope of end-diastolic pressure-volume relation (EDPVR)” value [6] was 0.296 ± 0.018 mmHg/ml, the “Slope of end-systolic pressure volume relation (ESPVR)” value [6] was 2.43 ± 0.35 mmHg/ml and the “Stroke volume (SV)” value [6] was 21 ± 0.8 mL. The “Systemic vascular resistance (SVR)” value [6] was 3571 ± 113 dynes-sec-cm^−5, the “Ventricular or atrial arrhythmias” value (HF dogs n=6, iv 10 μg/kg/min for 6 h) was “did not evoke any ventricular or atrial arrhythmias” and the “Effect on DCT” value [7] was “increased”. For the same compound, the “Effect on EDWS” value [7] was “decreased significantly”, the “Effect on Ei/Ai” value [7] was “increased significantly” and the “Effect on PE/PA” value [7] was “increased significantly”. For the same compound, the “Effect on HR” value [8] was “no effect”, the “Effect on mAoP” value [8] was “no effect” and the “Effect on EF (LVEF)” value (HF dogs n=6, iv 10 μg/kg/min for 6 h, vs baseline, listed as GP-531 tartrate salt) was “increase”. The “Effect on slope of the EDPVR” value (HF dogs n=6, iv 10 μg/kg/min, 6 hours, not statistically significant) was “tended to decrease” and the “LV systolic and diastolic function” value (HF dogs, iv 10 μg/kg/min for 6 hours) was “can improve both LV systolic and diastolic function”.
